According to patent US6989396B2, “Tropane alkaloid multidrug resistance inhibitors from Erythroxylum pervillei and use of the same” (The Board of Trustees of the University of Illinois, priority 2001, dated 2006):
Values joined by “and” are separate entries in the source; they are usually repeats but may differ in a detail not shown here. Equal entries are not always repeated. “Also recorded” adds a separate entry of the source. Marks after values point to notes of the source that are not given here.

How the values were obtained:
[1] = test system: KB, oral epidermoid carcinoma; experiment: In vitro cytotoxicity, human tumor panel: KB; type: cell-based; settings: Homo sapiens, read-out: ED50 KB
Outline: (§1)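 Human cancer cell panel; cytotoxicity per standard protocol. KB-V1 run ± VLB.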

[2] = test system: LNCaP, hormone-dependent prostate cancer; experiment: In vitro cytotoxicity, human tumor panel: LNCaP; type: cell-based; settings: Homo sapiens, LNCaP, read-out: ED50 LNCaP
Outline: as §1

[3] = test system: SW626, human ovarian adenocarcinoma; experiment: In vitro cytotoxicity, human tumor panel: SW626; type: cell-based; settings: SW626, read-out: ED50 SW626
Outline: as §1

[4] = test system: SKOV3 (ovarian adenocarcinoma); experiment: Cytotoxicity in ovarian adenocarcinoma SKOV3 (pGp -ve); type: cell-based; settings: Homo sapiens, SK-OV-3, read-out: IC50 SKOV3 (pGp − ve)
Outline: as §1

KB-8-5 cells [5] = experiment: Reversal of MDR, cell survival assay: KB-8-5 with or without colchicine; type: cell-based, human; settings: for Ratio of IC50 values KB-3/[KB-8-5 (+)] / Ratio of IC50 values [KB-8-5 (−)]/[KB-8-5 (+)]: colchicine 10 ng/ml
Description: Cytotoxic potential. The cytotoxic potential of test substances with KB-3, KB-V1 and KB-8-5 cells was determined as described previously (24). Briefly, various concentrations of test compounds (dissolved in 10 μl of 10% DMSO) were transferred to 96-well plates, and 190 μl aliquots of cell suspensions (5×10^4 cells/ml) were added to each well. The plates then were incubated for 72 hours at 37° C. (100% humidity with a 5% CO2 atmosphere in air), and 100 μl of cold 20% aqueous trichloroacetic acid were added to the growth medium in each well to fix the cells. The cultures were incubated at 4° C. for 30 minutes, washed, air-dried, stained with sulforhodamine B solution, and washed with 1% acetic acid. […] In each case, a zero-day control was performed by adding an equivalent number of cells to several wells and incubating at 37° C. for 30 minutes, and processing as described above. Optical density values obtained with the zero-day control were subtracted, and cell survival, relative to control (solvent-treated) cultures, was calculated. The cytotoxic potential of the compounds with CEM and CEM/VLB100 cells was determined as described by Beck et al. (30). Cells were grown in 24-well plates at a density of 5–6×10^5 cells/ml. At 48 hours, the cell number was determined using a Coulter Counter, with a channelizer to distinguish cells from debris.

[6] = biological target: T1, Pgp (KB-V1 cell membrane vesicles) (Homo sapiens, UniProt P08183); experiment: [3H]Vinblastine accumulation with KB-V1 cell membrane vesicles; type: binding
T1 construct: Cell membrane vesicles were prepared from KB-V1 cells following literature procedures; endogenous in cells; host or cells: KB-V1 cells (vinblastine-selected multidrug-resistant KB line); plasma membrane vesicles
Description: [^3H]Vinblastine accumulation with KB-V1 vesicles. Cell membrane vesicles were prepared from KB-V1 cells following literature procedures (31, 32) with some modifications. Medium was removed from KB-V1 cells in log growth phase (about 80% confluence) and the cells were rinsed with ice-cold PBS followed by ice-cold PBS containing 2 mM EDTA. Aprotinin (1 mg/ml) was then added, and, after a 10 minutes incubation at room temperature, the cells were harvested by gentle aspiration with a serological pipette and collected by centrifugation (100×g for 5 minutes). The cells were suspended in 0.25 M sucrose buffer (0.01 M Tris-HCl, pH 7.5, containing 0.25 M sucrose, 0.2 mM CaCl2, 1 mM EDTA) and homogenized with a Polytron at 2,500 rpm for 30 seconds. […] The homogenate then was diluted with four volumes of 0.025 M sucrose solution (0.01 M Tris-HCl, pH 7.5, containing 0.025 M sucrose) and centrifuged (1,000×g for 10 minutes). […] The interface (about 5 ml) was collected and diluted with four volumes of 0.25 M sucrose, 0.01 M Tris-HCl, pH 7.5, and centrifuged at 100,000×g for 1 hour. The resulting vesicle pellet was suspended in PBS containing 1 mM phenylmethylsulfonyl fluoride, using a 25-gauge needle, and stored at −80° C. Protein content was determined using a bicinchoninic acid protein assay kit with BSA as a standard (33).
Vinblastine accumulation with membrane vesicles assays were performed in 96-well plates as described previously (23, 24). […] Various concentrations of test samples, dissolved in 5 μl of DMSO, were then added (final volume, 100 μl), and incubations were conducted at ambient temperature for 20 minutes. For kinetic studies, various concentrations of [^3H]vinblastine were used. Reactions were terminated by aspirating the contents of each well onto a glass filter filter (printed type A filtermats, Wallac) using a 96-well harvester (Harvester 96, Tomtec). […] Nonspecific binding was determined by performing similar incubations with reaction mixtures containing a 1,000-fold excess of unlabeled vinblastine. Nonspecific binding was subtracted from all total-binding data to yield specific binding.

MDR1 (Pgp) expression = experiment: Western blot analysis of MDR1 expression; type: cell-based, human; settings: KB-V1 and CEM/VLB100 cells, 72 hours; pervilleine A up to 45 μM, verapamil up to 44 μM
Description: Western blot analysis of MDR1 expression. […] Cells (7.5×10^5 cells as starting cell amount) were harvested using SDS lysis buffer [20 mM Tris-HCl (pH 6.8) containing 0.4% SDS (w/v), 5% glycerol (v/v), 0.006% bromophenol blue, 2% β-mer-captoethanol], and lysates were boiled for 10 minutes and stored at −20° C. Aliquots of lysates were used for protein determinations (bicinchoninic acid protein assay kit with BSA as standard), and equivalent amounts of protein were electrophoresed by SDS-PAGE with precast 7.5% Tris-glycine acrylamide gels (Novex, San Diego, Calif.). Following transfer to polyvinylidene difluoride membranes, nonspecific binding sites were blocked with 5% nonfat dry milk. Blotting was performed with rabbit polyclonal antibody mdr (Ab-1) (Oncogene Research Products, Inc.) and analyzed by streptavidin horseradish peroxidase-conjugated secondary antibody (Amersham Life Science) and visualized using a ECL western blotting detection system (Amersham Life Science).

KB-8-5 cells [7] = experiment: In vivo hollow fiber test: KB-8-5; parameters: species or system NCr nu/nu mice
Description: In vivo hollow fiber test. […] Confluent monolayers of KB-3, KB-V1 or KB-8-5 cells were harvested, collected by centrifugation and resuspended in conditioned medium at a concentration of 7.5×10^5 cells/ml.
Test compounds were administrated once daily by intraperitoneal injection from day 3–6 after implantation. Body weights were measure daily.
After incubating at 37° C. for 4 hours, the culture medium was aspirated and the samples were washed twice with normal saline containing 2.5% protamine sulfate solution by overnight incubation at 4° C. […] The formazan was extracted from each sample with DMSO (250 μl/well) for 4 hours at room temperature on a rotation platform.

[8] = summation of single-agent inhibitions

T1 sequence (P08183 whole entry): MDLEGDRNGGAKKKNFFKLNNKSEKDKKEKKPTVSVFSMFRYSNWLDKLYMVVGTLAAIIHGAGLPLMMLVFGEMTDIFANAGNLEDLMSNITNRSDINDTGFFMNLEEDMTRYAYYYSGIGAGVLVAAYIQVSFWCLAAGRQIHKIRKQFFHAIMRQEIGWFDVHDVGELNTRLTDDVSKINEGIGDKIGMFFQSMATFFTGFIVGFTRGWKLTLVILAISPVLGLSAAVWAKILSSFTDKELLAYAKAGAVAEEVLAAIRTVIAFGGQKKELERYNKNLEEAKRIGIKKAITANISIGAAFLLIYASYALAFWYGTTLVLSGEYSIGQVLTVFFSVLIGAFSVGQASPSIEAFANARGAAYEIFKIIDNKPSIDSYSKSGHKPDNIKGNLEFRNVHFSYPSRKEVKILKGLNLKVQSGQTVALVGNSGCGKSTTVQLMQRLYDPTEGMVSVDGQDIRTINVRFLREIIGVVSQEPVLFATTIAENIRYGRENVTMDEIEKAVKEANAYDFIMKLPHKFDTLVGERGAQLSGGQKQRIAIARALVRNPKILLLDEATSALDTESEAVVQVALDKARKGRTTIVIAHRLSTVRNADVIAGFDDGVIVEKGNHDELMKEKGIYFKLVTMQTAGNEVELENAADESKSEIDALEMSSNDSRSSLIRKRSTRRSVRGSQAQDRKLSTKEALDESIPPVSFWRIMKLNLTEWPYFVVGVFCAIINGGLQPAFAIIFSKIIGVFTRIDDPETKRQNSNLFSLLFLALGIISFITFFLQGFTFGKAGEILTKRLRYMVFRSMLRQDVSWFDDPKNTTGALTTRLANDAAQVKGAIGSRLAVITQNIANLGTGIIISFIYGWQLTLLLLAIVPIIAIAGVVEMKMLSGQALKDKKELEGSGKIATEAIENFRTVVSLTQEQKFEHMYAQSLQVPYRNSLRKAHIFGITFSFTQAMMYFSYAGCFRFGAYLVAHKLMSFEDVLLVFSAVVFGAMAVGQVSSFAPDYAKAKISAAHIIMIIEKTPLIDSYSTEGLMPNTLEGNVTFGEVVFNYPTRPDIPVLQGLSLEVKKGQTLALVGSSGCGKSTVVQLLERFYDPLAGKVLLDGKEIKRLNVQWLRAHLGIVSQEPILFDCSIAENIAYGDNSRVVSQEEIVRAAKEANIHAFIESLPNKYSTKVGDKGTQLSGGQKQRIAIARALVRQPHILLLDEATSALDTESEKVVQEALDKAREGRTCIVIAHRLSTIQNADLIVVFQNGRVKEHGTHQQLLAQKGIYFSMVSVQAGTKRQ

COc1cc(C=CC(=O)O[C@H]2[C@@H](O)[C@@H]3C[C@H](OC(=O)c4cc(OC)c(OC)c(OC)c4)C[C@H]2N3C)cc(OC)c1OC [Compound 3, 3α-(3,4,5-trimethoxybenzoyloxy)-6β-(3,4,5-trimethoxycinnamoyloxy)-7β-hydroxytropane]
IC50 [1]: > 20 µg/mL | IC50 [2]: > 20 µg/mL | IC50 [3]: > 20 µg/mL | IC50 [4]: > 10 µM | IC50 (KB-8-5 cells [5]; Homo sapiens): 14 µM | Ratio of IC50 values KB-3/[KB-8-5 (+)] (KB-8-5 cells [5]; listed as Pervilleine A): 40.3^d | Ratio of IC50 values [KB-8-5 (−)]/[KB-8-5 (+)] (KB-8-5 cells [5]; listed as Pervilleine A): 23.3^d | Ratio of IC50 values KB-3/[KB-8-5 (+)] (KB-8-5 cells [5]; listed as pervilleine A): 40.3 | Ratio of IC50 values [KB-8-5 (−)]/[KB-8-5 (+)] (KB-8-5 cells [5]; listed as pervilleine A): 23.3 | fold reduction of [3H]vinblastine accumulation ([6]; 0–100 μM, 0.16 μM [3H]vinblastine): about 65 fold | IC50 ([6]; 0.16 μM [3H]vinblastine, 0.5 mM ATP, 20 minutes, ambient temperature): 3.84 µM | Ki ([6]; double-reciprocal plots, 0.015–0.16 μM [3H]vinblastine, read-out: Ki, competitive with respect to vinblastine binding): ~7.3 µM and 7.3 µM | mode of inhibition of vinblastine accumulation ([6]; kinetic analysis, double-reciprocal plots): competitive inhibition | effect on levels of Pgp (MDR1 protein expression) (MDR1 (Pgp) expression): did not alter expression levels; also recorded: did not significantly alter; also recorded: did not significantly affect | Calculated inhibition (vinblastine + reversing agent as single agents), KB-8-5, i.p. site (KB-8-5 cells [7]; [8]): 4.5% | Calculated inhibition (vinblastine + reversing agent as single agents), KB-8-5, s.c. site (KB-8-5 cells [7]; [8]): 4.9% | Observed inhibition from coadministration with vinblastine, KB-8-5, s.c. site (KB-8-5 cells [7]; vinblastine 100 μg/kg + reversing agent 0.136 mmol/kg): 28 (P = 0.008) % | Observed inhibition from coadministration with vinblastine, KB-8-5, i.p. site (KB-8-5 cells [7]; vinblastine 100 μg/kg + reversing agent 0.136 mmol/kg, listed as pervilleine A): 74.7 (P < 0.0001) % | Growth inhibition, single agent, KB-8-5, s.c. site (KB-8-5 cells [7]; vinblastine 100 μg/kg, reversing agents 0.136 mmol/kg): 2.6% | Growth inhibition, single agent, KB-8-5, i.p. site (KB-8-5 cells [7]; vinblastine 100 μg/kg, reversing agents 0.136 mmol/kg, i.p. injection once daily days 3–6): 3.3%
